From BindingDB's records for PubMed 10617681 (Dupont Pharmaceuticals, 2000)

Assays:
[1] = molecular target: 5-hydroxytryptamine receptor 2B (Homo sapiens, UniProt P41595)
[2] = molecular target: T1, 5-hydroxytryptamine receptor 2C (Homo sapiens, UniProt P28335)
T1 sequence (P28335 whole entry): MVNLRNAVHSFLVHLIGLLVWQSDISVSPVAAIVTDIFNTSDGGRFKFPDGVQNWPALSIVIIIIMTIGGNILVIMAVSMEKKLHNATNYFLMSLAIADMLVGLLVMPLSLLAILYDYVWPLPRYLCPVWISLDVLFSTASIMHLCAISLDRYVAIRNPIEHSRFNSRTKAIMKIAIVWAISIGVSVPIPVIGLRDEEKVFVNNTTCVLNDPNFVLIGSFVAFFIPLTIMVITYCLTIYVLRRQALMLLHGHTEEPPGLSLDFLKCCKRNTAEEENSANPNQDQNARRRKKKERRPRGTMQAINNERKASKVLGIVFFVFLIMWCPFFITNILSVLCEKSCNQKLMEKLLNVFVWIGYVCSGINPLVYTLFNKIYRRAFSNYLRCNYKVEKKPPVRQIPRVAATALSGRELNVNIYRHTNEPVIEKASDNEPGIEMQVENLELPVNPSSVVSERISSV

Sequence of 5-hydroxytryptamine receptor 2B (P41595 whole entry): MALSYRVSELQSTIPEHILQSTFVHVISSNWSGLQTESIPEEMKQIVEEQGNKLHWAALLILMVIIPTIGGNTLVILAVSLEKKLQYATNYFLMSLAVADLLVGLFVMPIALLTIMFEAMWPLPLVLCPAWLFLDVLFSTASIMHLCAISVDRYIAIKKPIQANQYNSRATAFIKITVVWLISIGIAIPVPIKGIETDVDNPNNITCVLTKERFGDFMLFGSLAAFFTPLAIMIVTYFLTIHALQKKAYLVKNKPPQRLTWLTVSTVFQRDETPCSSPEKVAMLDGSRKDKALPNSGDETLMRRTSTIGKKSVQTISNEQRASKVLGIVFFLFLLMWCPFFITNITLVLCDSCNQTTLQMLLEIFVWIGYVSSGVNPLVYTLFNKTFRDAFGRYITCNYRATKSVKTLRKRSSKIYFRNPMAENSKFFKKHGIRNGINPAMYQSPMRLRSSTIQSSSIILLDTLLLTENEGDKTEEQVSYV

SMILES | Ki [1] | Ki [2]
C[C@H](N)Cc1cccc(C(F)(F)F)c1 [Norfenfluramine (+)] | 27 nM | 56 nM
C[C@@H](N)Cc1cccc(C(F)(F)F)c1 [l-norfenfluramine] | 65 nM | 99 nM
